Results from patent publication US12570618B2, “Compound, production method therefor, and pharmaceutical composition” (TOKYO UNIVERSITY OF SCIENCE FOUNDATION, priority 2021, dated 2026).

How the values were obtained:
Test in all cases: cell proliferation inhibitory activity, WST-8 (Test Example 3)
Type in all cases: cell-based
[1] = system: H2228 (Lung adenocarcinoma cell line); conditions: Homo sapiens, NCI-H2228, 48 h; H2228, 2 days with compound, WST-8, Table 3
Experimental: (§1) Compounds RS8 to RS10 obtained in Synthesis Examples 8 to 10 were examined for cell proliferation inhibitory activity against human cultured cancer cells. The cancer cells used were two human lung adenocarcinoma cell lines and one human lung squamous cell carcinoma cell line. The cancer cells of each type were seeded on a 96-well plate and cultured for 2 days, and cultured for 2 days with addition of serially diluted products of the compounds, and the cell proliferation was then measured by colorimetry with a water-soluble tetrazolium salt (WST-8). Thereafter, 50% cell proliferation inhibitory concentrations (GI50) were calculated from the cell proliferation curves.

[2] = system: H226 (Lung squamous cell carcinoma cell line); conditions: Homo sapiens, NCI-H226, 48 h; H226, 2 days with compound, WST-8, Table 3
Experimental: as §1

[3] = system: H1650 (Lung adenocarcinoma cell line); conditions: Homo sapiens, NCI-H1650, 48 h; H1650, 2 days with compound, WST-8, Table 3
Experimental: as §1

GI50 [1]: 700 nM
GI50 [2]: 300 nM
GI50 [3]: 500 nM
Structure (SMILES): C[C@@H]1[C@@H](O)[C@H](C)C[C@@H]2C=C[C@H](C)[C@H](/C=C/C=C(\Br)C(=O)OCc3ccccn3)[C@@H]12 [RS10, Pyridin-2″-ylmethyl (2Z,4E)-2-bromo-5-((1′S,2′S,4′aR,6′R,7′S,8′S,8′aS)-7′-hydroxy-2′,6′,8′-trimethyl-1′,2′,4′a,5′,6′,7′,8′,8′a-octahydronaphthalen-1′-yl)penta-2,4-dienoate]
